The test system of assay [1] is Streptococcus pneumoniae. Nature of the assay: Antibacterial activity against Streptococcus pneumoniae serotype 23A by broth microdilution method. Format: functional.
Assay [2] is described as follows: T>MIC in mouse prophylaxis model infected with Bacillus anthracis. Format: functional.
For assay [3], the system named is Streptococcus pneumoniae. Nature of the assay: Antibacterial activity against Streptococcus pneumoniae serotype 35B by broth microdilution method. Format: functional. On the technique in general: Broth dilution looks for growth in wells or tubes with falling amounts of substance.
In assay [4] the test system is Streptococcus pneumoniae. Nature of the assay: Antibacterial activity against non-multidrug-resistant Streptococcus pneumoniae. Format: functional.
Assay [5] is described as follows: T>MIC in mouse neutropenic thigh infection model infected with multidrug-resistant Streptococcus pneumoniae. The class given is functional, Thigh muscle.
Assay [6] relates to Streptococcus pneumoniae. Nature of the assay: Antibacterial activity against multidrug-resistant Streptococcus pneumoniae. Format: functional.
Assay [7] deals with Streptococcus pneumoniae. Nature of the assay: Antibacterial activity against Streptococcus pneumoniae serotype 22 by broth microdilution method. Format: functional.
The test system of assay [8] is Streptococcus pneumoniae. The experiment in a line: Antibacterial activity against Streptococcus pneumoniae serotype 6A/C by broth microdilution method. Format: functional.
The subject of assay [9] is Streptococcus pneumoniae. Nature of the assay: Antibacterial activity against Streptococcus pneumoniae serotype 3 by broth microdilution method. The class given is functional.
Assay [10] has as its system Streptococcus pneumoniae. The experiment in a line: Antibacterial activity against Streptococcus pneumoniae serotype 19F by broth microdilution method. Format: functional.
Assay [11] relates to Streptococcus pneumoniae. The experiment in a line: Antibacterial activity against Streptococcus pneumoniae serotype 19A by broth microdilution method. The class given is functional.
Assay [12] has as its system Streptococcus pneumoniae. Nature of the assay: Antibacterial activity against multidrug-resistant Streptococcus pneumoniae infected in mouse neutropenic thigh infection model. As to conditions: Thigh muscle. Format: functional.
Assay [13] has as its system Streptococcus pneumoniae. Nature of the assay: Antibacterial activity against Streptococcus pneumoniae serotype 15A by broth microdilution method. Format: functional.
The test system of assay [14] is Streptococcus pneumoniae. The experiment in a line: Antibacterial activity against Streptococcus pneumoniae serotype 33 by broth microdilution method. The class given is functional.
Assay [15] deals with Streptococcus pneumoniae. The experiment in a line: Antibacterial activity against Streptococcus pneumoniae serotype 35B assessed as percent susceptible isolates by broth microdilution method in presence of clavulanate. Format: functional.
The test system of assay [16] is Streptococcus pneumoniae. The experiment in a line: Antibacterial activity against Streptococcus pneumoniae serotype 23A assessed as percent susceptible isolates by broth microdilution method in presence of clavulanate. The class given is functional.
The test system of assay [17] is Streptococcus pneumoniae. The experiment in a line: Antibacterial activity against Streptococcus pneumoniae serotype 3 by broth microdilution method in presence of clavulanate. The class given is functional.
Assay [18] relates to Streptococcus pneumoniae. Nature of the assay: Antibacterial activity against Streptococcus pneumoniae serotype 23A by broth microdilution method in presence of clavulanate. Format: functional.
Assay [19] has as its system Streptococcus pneumoniae. The experiment in a line: Antibacterial activity against Streptococcus pneumoniae serotype 33 assessed as percent susceptible isolates by broth microdilution method in presence of clavulanate. Format: functional.
For assay [20], the system named is Streptococcus pneumoniae. The experiment in a line: Antibacterial activity against Streptococcus pneumoniae serotype 6A/C by broth microdilution method in presence of clavulanate. The class given is functional.
The subject of assay [21] is Streptococcus pneumoniae. Nature of the assay: Antibacterial activity against Streptococcus pneumoniae serotype 23A assessed as percent resistant isolates by broth microdilution method in presence of clavulanate. The class given is functional.
In assay [22] the test system is Streptococcus pneumoniae. The experiment in a line: Antibacterial activity against Streptococcus pneumoniae serotype 15A assessed as percent resistant isolates by broth microdilution method in presence of clavulanate. Format: functional.
Assay [23] relates to Streptococcus pneumoniae. Nature of the assay: Antibacterial activity against Streptococcus pneumoniae serotype 19A assessed as percent susceptible isolates by broth microdilution method in presence of clavulanate. Format: functional.
Assay [24] deals with Streptococcus pneumoniae. The experiment in a line: Antibacterial activity against Streptococcus pneumoniae serotype 35B assessed as percent resistant isolates by broth microdilution method in presence of clavulanate. Format: functional.
The subject of assay [25] is Streptococcus pneumoniae. The experiment in a line: Antibacterial activity against Streptococcus pneumoniae serotype 19A by broth microdilution method in presence of clavulanate. Format: functional.
Assay [26] has as its system Streptococcus pneumoniae. The experiment in a line: Antibacterial activity against Streptococcus pneumoniae serotype 33 by broth microdilution method in presence of clavulanate. The class given is functional.
In assay [27] the test system is Streptococcus pneumoniae. Nature of the assay: Antibacterial activity against Streptococcus pneumoniae serotype 19F assessed as percent susceptible isolates by broth microdilution method in presence of clavulanate. The class given is functional.
Assay [28] concerns Streptococcus pneumoniae. The experiment in a line: Antibacterial activity against Streptococcus pneumoniae serotype 22 assessed as percent resistant isolates by broth microdilution method in presence of clavulanate. Format: functional.
The subject of assay [29] is Streptococcus pneumoniae. The experiment in a line: Antibacterial activity against Streptococcus pneumoniae serotype 15A by broth microdilution method in presence of clavulanate. Format: functional.
Assay [30] has as its system Streptococcus pneumoniae. The experiment in a line: Antibacterial activity against Streptococcus pneumoniae serotype 19F by broth microdilution method in presence of clavulanate. The class given is functional.
The subject of assay [31] is Streptococcus pneumoniae. Nature of the assay: Antibacterial activity against Streptococcus pneumoniae serotype 15A assessed as percent susceptible isolates by broth microdilution method in presence of clavulanate. The class given is functional.
For assay [32], the system named is Streptococcus pneumoniae. Nature of the assay: Antibacterial activity against Streptococcus pneumoniae serotype 3 assessed as percent susceptible isolates by broth microdilution method in presence of clavulanate. Format: functional.
Assay [33] deals with Streptococcus pneumoniae. Nature of the assay: Antibacterial activity against Streptococcus pneumoniae serotype 22 assessed as percent susceptible isolates by broth microdilution method in presence of clavulanate. The class given is functional.
The test system of assay [34] is Streptococcus pneumoniae. The experiment in a line: Antibacterial activity against Streptococcus pneumoniae serotype 3 assessed as percent resistant isolates by broth microdilution method in presence of clavulanate. The class given is functional.
Assay [35] concerns Streptococcus pneumoniae. The experiment in a line: Antibacterial activity against Streptococcus pneumoniae serotype 6A/C assessed as percent resistant isolates by broth microdilution method in presence of clavulanate. Format: functional.
Assay [36] has as its system Streptococcus pneumoniae. The experiment in a line: Antibacterial activity against Streptococcus pneumoniae serotype 19F assessed as percent resistant isolates by broth microdilution method in presence of clavulanate. The class given is functional.
The test system of assay [37] is Streptococcus pneumoniae. Nature of the assay: Antibacterial activity against Streptococcus pneumoniae serotype 33 assessed as percent resistant isolates by broth microdilution method in presence of clavulanate. The class given is functional.
Assay [38] concerns Streptococcus pneumoniae. The experiment in a line: Antibacterial activity against Streptococcus pneumoniae serotype 19A assessed as percent resistant isolates by broth microdilution method in presence of clavulanate. Format: functional.
The test system of assay [39] is Streptococcus pneumoniae. Nature of the assay: Antibacterial activity against Streptococcus pneumoniae serotype 35B by broth microdilution method in presence of clavulanate. Format: functional.
Assay [40] deals with Streptococcus pneumoniae. Nature of the assay: Antibacterial activity against Streptococcus pneumoniae serotype 6A/C assessed as percent susceptible isolates by broth microdilution method in presence of clavulanate. The class given is functional.
For assay [41], the system named is Streptococcus pneumoniae. The experiment in a line: Antibacterial activity against Streptococcus pneumoniae serotype 22 by broth microdilution method in presence of clavulanate. Format: functional.

Broadly, the MIC90 is the lowest concentration that inhibits either 90% of growth or 90% of the strains tested, depending on the study.

Converted amounts (≈) assume the structure as drawn. A value given as a limit tells only on which side of the number the result lay.

Take `C[C@@H](O)[C@H]1C(=O)N2C(C(=O)O)=C([C@H]3CCCO3)S[C@H]12` [FAROPENEM]: the MIC90 in [1] came out at 0.06 mg/L (≈ 0.21 µM); in assay [3], 0.5 mg/L (≈ 1.75 µM); in assay [4], 0.25 mg/L (≈ 0.876 µM); in assay [6], 2 mg/L (≈ 7.01 µM); in [7], 0.015 mg/L (≈ 0.0526 µM); in assay [8], 0.25 mg/L (≈ 0.876 µM). Further, the MIC90 in [9] is 0.015 mg/L (≈ 0.0526 µM); in [10], 1 mg/L (≈ 3.5 µM); in [11], 1 mg/L (≈ 3.5 µM); in assay [12] it was more than 2 mg/L; in assay [13], 0.12 mg/L (≈ 0.421 µM); in [14] it was 0.015 mg/L (≈ 0.0526 µM). Moreover, the “fT>MIC” value in assay [2] was 16.4%; in assay [5], 13.9%.

As for `CC1(C)S[C@@H]2[C@H](NC(=O)[C@H](N)c3ccc(O)cc3)C(=O)N2[C@H]1C(=O)O` [AMOXICILLIN], the % susceptible isolates came to 100% in assay [15]; 100% in assay [16]; 100% in assay [19]; 62% in assay [23]; 47% in assay [27]; 100% in assay [31]. Moreover, the % susceptible isolates was 100% in assay [32], 100% in [33] and 97% in assay [40]. The MIC90 in assay [17] is not above 0.12 mg/L; in assay [18], 0.25 mg/L; in assay [20], 1 mg/L; in [25], 8 mg/L; in [26] it was not above 0.12 mg/L; in assay [29], 0.25 mg/L. Further, the MIC90 was 16 mg/L in assay [30], 2 mg/L in [39] and not above 0.12 mg/L in [41]. Further, the % resistant isolates came to 0% in assay [21]; 0% in [22]; 0% in [24]; 0% in assay [28]; 0% in assay [34]; 3% in assay [35]. Moreover, the % resistant isolates in assay [36] came out at 48%; in [37] it was 0%; in assay [38], 35%.
